One assay addresses T1, PDE4C3 (Homo sapiens, UniProt Q08493).
T1 construct: Using Full-Length Human PDE4 Isoforms: Long Forms PDE4D5, PDE4C3, PDE4B1 and Short Form PDE4B2; made in house; host or cells: HEK 293 transfected with pcDNA3.1 or pDEST PDE4 expression vector; cytosol fraction of the lysate by analogy to PDE4D5
Kind of assay: PDE assay, activation of full-length human PDE4C3 long form ([3H]cAMP radio-assay). The settings on record: 30 μM test compound; mean % increase in counts over basal activity. It is filed as biochemical. An excerpt:
Experiment 1: Measurement of Modulation of Enzyme Activity by PDE4 Long Form Activators of the Present Invention Using Full-Length Human PDE4 Isoforms: Long Forms PDE4D5, PDE4C3, PDE4B1 and Short Form PDE4B2
(Marchmont, R. J. and Houslay, M. D. Biochem. J. 187: 381-92, 1980)
For transient transfection of exogenous PDE4 long isoforms, HEK 293 cells were transfected with pcDNA3.1 or pDEST™ PDE4 expression vectors using Lipofectamine LTX/Plus reagent (Invitrogen) as outlined by the manufacturer. […]
HEK-PDE4D5 cells were seeded out in 100 mm plates and incubated at 37° C. in an atmosphere of 5% CO2, 95% air. Cell lysates were prepared using KHEM buffer [50 mM KCl, 10 mM EGTA, 50 mM HEPES (pH 7.2), 1.92 mM MgCl2].
To prepare the cell lysates, the 100 mm plates containing the cells were placed on ice and washed with ice-cold PBS (phosphate buffered saline, pH 7.4). KHEM buffer (500 μl) was added to the cells. Cells were then scraped off the plate and triturated using a needle (BD Microlance™ 0.8, 40 mm). The lysed cells were then centrifuged at 2000 rpm for 10 minutes to remove cell debris and the supernatant (cell lysate containing recombinant PDE4D5) was transferred to a fresh tube and kept on ice.
The cell lysate containing recombinant PDE4D5 was transferred into a centrifuge tube and placed into an ultracentrifuge (BECKMAN COULTER) and spun at high speed (100,000 g) for 30 minutes at 4° C. The cytosol fraction was then collected and its protein amount determined using a BCA protein assay.
PDE assays were performed in thin walled V-bottomed 96-well plates. The assays were performed at a final concentration of 10 mM Tris/5 mM MgCl2 μlus PDE4D5 cell lysate cytosol fraction, containing over-expressed PDE4D5, with and without test compound. The lysate/compound mix were incubated together for 15 min at room temperature on an orbital shaker prior to addition of [^3H] cAMP (final concentration 1 μM [^3H] cAMP; Perkin Elmer) to a final volume of 50 μl per reaction. The reactions were then incubated for 10 minutes at 30° C., terminated by heating for 2 min at 95° C. and allowed to cool. Snake venom (12.5 μl of 1 mg/ml; Crotalus atrox, Sigma) was then added and the plates were agitated and incubated for a further 15 minutes at 30° C. Dowex ion exchange resin (Sigma, chloride form, 200-400 mesh; 200 μl; prepared as a 1:1 Dowex: water stock, thoroughly re-suspended and diluted 2:1 with ethanol) was then added to each well and the plates incubated for 15 min at room temperature on an orbital shaker ensuring sufficient agitation for resin suspension (550 RPM). The reaction mixture was then transferred to a 96 well filter plate (Millipore; […] pore size) and filtered into a receiving 96-well plate to remove the dowex suspension. 30 μL of the filtered solution was then transferred to the wells of an Opti-plate (Perkin Elmer) 96 well assay plate and 120 μl of Microscint 40 scintillation fluid was added. The plate was then placed on an orbital shaker for 10 min at high speed (900 RPM) to mix the sample with scintillation fluid prior to quantitation using a plate based scintillation counter (Top-Count).
The % increase in counts in the presence of test compound at a particular concentration indicates the % increase in enzyme activity at that concentration.

The next assay has as its system m-IMCD3 cells. In words: Inhibition of PGE2-stimulated in vitro cyst formation in 3D culture of m-IMCD3 cells. It is filed as cell-based, mouse. The settings on record: Mus musculus, mIMCD3, 144 h; 10 μM test compound; mean cyst area (%) compared to 100% for (DMSO + PGE2) and 0% for DMSO control; 100 nM PGE2; 6 days; read-out: % Cyst area after incubation with 10 μM test compound. A digest of the protocol: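 Mouse m-IMCD3 cells grown in 3D collagen I/Matrigel gels. From 18-24 h after plating, compound (0.1% DMSO) plus 100 nM PGE2 were added and replenished at 2-3 days. After 6 days, imaging gave mean cyst area, scaled to 100% for DMSO+PGE2 and 0% for DMSO alone.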

T1 sequence (Q08493 1-680 isoform Q08493-3): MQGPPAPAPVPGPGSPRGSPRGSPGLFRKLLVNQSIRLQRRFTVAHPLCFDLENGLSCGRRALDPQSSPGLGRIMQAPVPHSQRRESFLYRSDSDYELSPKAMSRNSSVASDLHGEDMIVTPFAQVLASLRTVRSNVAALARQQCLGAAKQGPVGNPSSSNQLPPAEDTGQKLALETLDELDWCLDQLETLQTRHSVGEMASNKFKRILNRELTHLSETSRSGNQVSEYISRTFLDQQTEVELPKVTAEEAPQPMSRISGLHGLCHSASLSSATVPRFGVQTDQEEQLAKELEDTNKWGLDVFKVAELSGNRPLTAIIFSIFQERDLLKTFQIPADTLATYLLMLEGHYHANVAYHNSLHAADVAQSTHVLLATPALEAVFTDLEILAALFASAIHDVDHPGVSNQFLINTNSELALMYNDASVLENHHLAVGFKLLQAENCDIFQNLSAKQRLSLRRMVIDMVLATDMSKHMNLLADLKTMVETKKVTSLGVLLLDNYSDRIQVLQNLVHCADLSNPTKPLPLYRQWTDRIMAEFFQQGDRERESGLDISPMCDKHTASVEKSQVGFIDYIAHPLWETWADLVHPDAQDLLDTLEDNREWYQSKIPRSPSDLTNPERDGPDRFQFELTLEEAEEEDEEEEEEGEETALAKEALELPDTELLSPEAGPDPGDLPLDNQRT

In turn, `Cc1ncccc1-c1nc2ccc(C(=O)N[C@H]3CCOc4ccccc43)cc2s1` [Example 7, (S)-N-(chroman-4-yl)-2-(2-methylpyridin-3-yl)benzo[d]thiazole-6-carboxamide] gave an activation at 30 µM on PDE4C3 of 105%. For the same compound, the activity at 10 µM with m-IMCD3 cells is -7%.
